Test results: patent publication US6080750A, “Pyrimidine compound and anti-rotavirus composition” (priority 1996, dated 2000)
Values after ≈ are worked out from the molar mass of the structure shown. Where two headings read alike, the source gives them in different places.

What was measured:
male ICR mice = test: Toxicity test (mouse acute toxicity, minimum lethal dose); type: in vivo; settings: oral (po), male ICR mice fasted overnight, survival 14 days
Description: A test compound was orally administered to male ICR mice (weight 25-35 g) fasted overnight, and survival thereof was monitored for 14 days.

rotavirus SA-11 strain = test: Determination of antiviral activity (50% plaque reduction method); type: cell-based, rotavirus SA-11 (in CV-1 green monkey kidney cells); settings: for antiviral index (ED50 /ID50): ED50 CV-1 cells / ID50 rotavirus SA-11; for IC50: 96 h, read-out: ID50 (50% plaque inhibition dose), rotavirus SA-11
Protocol: Determination of activity of test compound against rotavirus and evaluation thereof
rotavirus: To a liquid containing preserved rotavirus SA-11 strain was added trypsin (Sigma, acetylated trypsin type V-S) to 10 μg/ml and incubated at 37° C. for 30 minutes to activate the […], after which the culture was diluted to a concentration of 50 plaque forming units (PFU)/0.1 ml with Eagle's minimum essential medium (MEM) and used for the determination.
(§1) cultured cell: CV-1 cells which are green monkey kidney cell line were cultured in MEM supplemented with 10% calf serum. The culture cells were prepared to a concentration of 4×10^5 cells/ml, plated on a 24 well microplate and cultured for 2 days before use for the determination.
Activated rotavirus SA-11 […] were inoculated at 50 PFU/0.1 ml to CV-1 cells cultured in a monolayer on a 24 well microplate. The virus was allowed to adsorb to the cells in 1.5 hours at 37° C. and the surface layer of the cells was washed three times with MEM. Then, a multilayer agar medium (mixed medium of MEM, 3 μg/ml acetylated trypsin and agar at final concentration of 0.8%, all added at 45° C.) containing aliquot of test compounds was superposed on the cell layer. The cells were incubated at 37° C. for 4 days, immobilized with formalin, stained with a crystal violet solution and counted for plaque number.
The antiviral activity was expressed by the concentration of the test compound (50% plaque inhibition dose: ID50 =μg/ml), which decreased plaques formed in the control cell culture without the test compound, by 50%.
ED50 value was divided by ID50 value and the obtained value was used as an antiviral index for the determination of selective anti-rotaviral activity on infected cells in comparison to that on normal cells (host cells).

[1] = Determination of cytotoxicity (50% cell growth inhibition effect); type: cell-based, green monkey; settings: monkey; CV-1 cells, 2 days, cell count; read-out: ED50 (50% cell growth inhibition effect dose), CV-1 cells
Protocol: as §1
CV-1 cells were prepared to a concentration of 4×10^4 cells/ml with MEM containing 10% calf serum and plated on a 24 well microplate, which was followed by culture for 2 days. The culture solution thereof was changed to MEM containing 10% calf serum and serially diluted test compounds at various concentrations, and the cells were cultured for 2 days. The cells were prepared into a homogeneous single cell suspension using 0.1% crude trypsin, and counted with a Coulter counter Model D (Coulter Electronics Ltd., England).
The 50% cell growth inhibition effect dose (ED50 =μg/ml) was expressed by the concentration of the test compound, which decreased cell numbers in the control cell culture without the test compound, by 50%.

[2] = in Chlorocebus sabaeus, rotavirus SA-11 50 PFU, CV-1 cells, 37° C., 4 days, plaque count
[3] = Rotavirus, CV-1, in Chlorocebus sabaeus

| Compound | mouse acute toxicity [lethal dose] (minimum lethal dose) (male ICR mice) [mg/kg] | antiviral index (ED50 /ID50) (rotavirus SA-11 strain) | IC50 (rotavirus SA-11 strain; [2]) [µg/mL] | CC50 at 48 h [1] [µg/mL] | IC50 (rotavirus SA-11 strain; [3]) [µg/mL] |
| --- | --- | --- | --- | --- | --- |
| Nc1ncc(Br)c(NCC2(CO)CC(CCc3ccccc3)C2)n1 (centres unmarked) [compound No. 7] | > 500 | – | – | – | – |
| Nc1nc(Cl)c(N)c(NCC2(CO)CCC2)n1 [compound 59] | > 500 | 2 | 1.9 (≈ 7.37 µM) | 3.6 (≈ 14 µM) | – |
| Nc1nc(Cl)cc(NCC2(O)CCC2)n1 [compound 28] | – | > 10 | – | > 30 | 3 (≈ 13.1 µM) |
| Nc1c(Cl)ncnc1NCC1(CO)CCC1 [compound 18] | > 500 | – | – | – | – |
| CC(C)(CO)CNc1cc(Cl)nc(N)n1 [compound No. 20, 2-Amino-6-chloro-4-[(3-hydroxy-2,2-dimethylpropyl)amino]pyrimidine] | – | > 9.5 | 10.5 (≈ 45.5 µM) | > 1 | – |
| Cl.Cl.Nc1nc(Cl)c(N)c(NCCO)n1 [compound No. 112, 6-Chloro-2,5-diamino-4-[(2-hydroxyethyl)amino]pyrimidine dihydrochloride] | > 1000 | – | – | – | – |
| Nc1nccc(NCC2(CO)CC(CCc3ccccc3)C2)n1 (centres unmarked) [compound No. 5] | > 500 | – | – | – | – |
| Nc1nc(Cl)cc(NCC2(CO)CC(c3ccccc3)C2)n1 (centres unmarked) [compound 47] | > 500 | – | – | – | – |
| Nc1nc(Cl)cc(NCC2(CO)CCC2)n1 [compound No. 35, 2-Amino-6-chloro-4-[[(1-hydroxymethyl-1-cyclobutyl)methyl]amino]-pyrimidine] | > 500 | – | 7.8 (≈ 32.1 µM) | – | – |
| Nc1nc(Cl)cc(NCC2(CO)CC(OCc3ccccc3)C2)n1 (centres unmarked) [compound 39] | > 500 | – | – | – | – |
| CC(C)(CO)CNc1nc(N)nc(Cl)c1N [compound 24] | – | 51.1 | 1.1 (≈ 4.48 µM) | 56.2 (≈ 229 µM) | – |
| CCC(CC)(CO)CNc1cc(Cl)nc(N)n1 [compound 23] | – | 23 | 3.5 (≈ 13.5 µM) | 80 (≈ 309 µM) | – |
| COc1cc(NCC2(CO)CCC2)nc(N)n1 [compound 86] | – | – | 2.2 (≈ 9.23 µM) | – | – |
| Nc1nc(Cl)cc(NCC2(CO)CC(CCc3ccccc3)C2)n1 (centres unmarked) [compound 44] | > 500 | – | – | – | – |
| Nc1nc(O)c(N)c(NCC2(CO)CC2)n1 [compound 104] | > 1000 | – | 0.6 (≈ 2.66 µM) | – | – |
| Nc1nccc(NCC2(CO)CC(OCc3ccccc3)C2)n1 (centres unmarked) [compound No. 3] | – | – | 12.6 (≈ 40.1 µM) | – | – |
| CCC(CC)(CO)CNc1nc(N)nc(Cl)c1N [compound 25] | – | 150.0 | 0.2 (≈ 0.731 µM) | 30 (≈ 110 µM) | – |
| Nc1nc(Cl)c(N)c(NCCCO)n1 [compound No. 113, 6-Chloro-2,5-diamino-4-[(3-hydroxypropyl)amino]pyrimidine] | > 1000 | > 38 | 2.6 (≈ 11.9 µM) | > 100 | – |
| Nc1nc(Cl)cc(NCC2(CO)CC(Cc3ccccc3)C2)n1 (centres unmarked) [compound 43] | > 500 | – | – | – | – |
| Nc1nc(Cl)cc(NCC2(CO)CCCC2)n1 [compound 48] | > 500 | – | – | – | – |
| Nc1ncc(Br)c(NCC2(CO)CCC2)n1 [compound No. 6, 2-Amino-5-bromo-4-[[(1-hydroxymethyl-1-cyclobutyl)methyl]amino]pyrimidine] | > 500 | – | 2.9 (≈ 10.1 µM) | – | – |
| Nc1nc(Cl)c(N)c(NCC2(CO)CC2)n1 [compound 58] | > 1000 | > 67 | – | > 100 | 1.5 (≈ 6.16 µM) |
